Measurements: patent US12441688B1, “CCR5 inhibitor” (KING SAUD UNIVERSITY, priority 2025, dated 2025)

Target: T1, CCR5 receptor (Homo sapiens, UniProt P51681)
T1 construct: expressed in transfected cells; host or cells: Chinese hamster ovary (CHO) cells expressing the CCR5 receptor, kept under blasticidin S selection
Experiment: CCR5 binding inhibition assay in CHO cells expressing the CCR5 receptor
Source text: All of the reagents and cell lines were obtained from commercial suppliers like Sigma Aldrich, Merck India Ltd., Himedia, and Rankem chemicals. Chinese Hamster Ovaries (CHO) cells expressing the CCR5 receptor were maintained in Ham's F-12 medium supplemented with 10% fetal calf serum, 50 units of penicillin per milliliter, and 50 micrograms of streptomycin per milliliter, in the presence of 5 micrograms of blasticidin S hydrochloride per milliliter. […] The cells were then washed. […] The inhibitory activity of the compounds on CCR5 binding was calculated using the formula: [1−(E−N)/(P−N)]×100%.
In this formula, N represents the absorbance at 450 nm in the negative control (the control antibody), while P corresponds to the absorbance in the positive control (the detecting antibody). E corresponds to the absorbance of the test compounds.
The data was analyzed using non-linear regression analysis to determine the IC50 values for both compounds.

T1 sequence (P51681 whole entry): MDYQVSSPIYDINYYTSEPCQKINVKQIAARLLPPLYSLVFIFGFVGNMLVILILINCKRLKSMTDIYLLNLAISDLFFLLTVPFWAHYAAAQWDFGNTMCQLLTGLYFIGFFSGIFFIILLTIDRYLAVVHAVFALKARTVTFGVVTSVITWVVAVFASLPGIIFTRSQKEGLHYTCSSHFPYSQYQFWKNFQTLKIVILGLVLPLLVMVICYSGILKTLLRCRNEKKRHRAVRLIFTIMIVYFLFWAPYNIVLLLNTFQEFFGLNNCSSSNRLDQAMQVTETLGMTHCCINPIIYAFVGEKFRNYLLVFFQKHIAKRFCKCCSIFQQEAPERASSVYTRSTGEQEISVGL

Percent inhibition against CCR5 (1 nM compound, listed as test compound, 0.001 µM) [%]	inhibition at 0.001 µM (1 nM compound, read-out: Percent inhibition against CCR5) [%]	Percent inhibition against CCR5 (10 nM compound, listed as test compound, 0.01 µM) [%]	inhibition at 0.01 µM (10 nM compound, read-out: Percent inhibition against CCR5) [%]	Percent inhibition against CCR5 (100 nM compound, 0.1 µM) [%]	inhibition at 0.1 µM (100 nM compound, read-out: Percent inhibition against CCR5) [%]	Percent inhibition against CCR5 (1000 nM compound, 1 µM) [%]	inhibition at 1 µM (1000 nM compound, read-out: Percent inhibition against CCR5) [%]	Percent inhibition against CCR5 (2000 nM compound, listed as test compound, 2 µM) [%]	inhibition at 2 µM (2000 nM compound, read-out: Percent inhibition against CCR5) [%]	IC50 (non-linear regression) [nM]	Compound	Percent inhibition against CCR5 (1 nM compound) [%]	Percent inhibition against CCR5 (10 nM compound) [%]	Percent inhibition against CCR5 (100 nM compound) [%]	Percent inhibition against CCR5 (1000 nM compound) [%]	Percent inhibition against CCR5 (2000 nM compound) [%]
24.5	≥ 24.5	39.8	≥ 39.8	59.1 ± 3.12	≥ 59.1	78.2 ± 4.75	≥ 78.2	91.3	≥ 91.3	2.62	Cc1n[nH]c(C(C)C)c1C(=O)N1CCCN(Cc2ccc(Oc3ccc(C#N)cc3)cc2)CC1 [Novel Compound, 4-(4-((4-(5-isopropyl-3-methyl-1H-pyrazole-4-carbonyl)-1,4-diazepan-1-yl)methyl)phenoxy)benzonitrile]	–	–	–	–	–
–	–	–	–	–	–	–	–	–	–	–	Maraviroc [reference compound]	20.0 ± 1.93	28.5 ± 2.40	55.1 ± 2.81	68.2 ± 2.97	85.3
